Data from US20160090351A1, “INHIBITORS OF DEUBIQUITINATING PROTEASES” (BRANDEIS UNIVERSITY, priority 2013, published 2016).
Where two headings read alike, the source gives them in different places. Blank lines part the entries; values can stand above or below the compound they belong to.

Tests used:
MCF7 cells [1] = test: viability and cell cycle of MCF7 cells (Alamar Blue, FACS); details: Alamar Blue
DUBs [2] = test: decomposition of high molecular weight ubiquitinated proteins (HMW-Ub) in lysates of HEK 293T cells expressing HA-Ub; type: biochemical, human; details: for DUB inhibitory activity, SAR in words: relative to C4 or parent analog; for stabilization of the HMW-Ub pool: HEK 293T HA-Ub lysates, 37° C.
Procedure: FIG. 30 depicts data showing that diphenylcarbonates inhibit the decomposition of high molecular weight ubiquitinated proteins (HMW-Ub). Lysates were prepared from HEK 293T cells expressing HA-ubiquitin. Samples were incubated at 37° C. and reactions were quenched by the addition of reducing Laemmli buffer. HMW-Ub was assessed by SDS-PAGE and immunoblotting with anti-HA antibody. A. Representative immunoblots measuring the decomposition of HMW-Ub in lysates treated with either the DMSO vehicle, G5 (10 μM) or C4 (500 μM). B. Plot of the decomposition of HMW-Ub in lysates treated with DMSO and C4 (500 μM) (N=2; error bars denote range). C. Inhibition of HMW-Ub decomposition by diphenylcarbonates. Lysates were treated with diphenylcarbonates (50 μM). “-” denotes no treatment; D, 1% DMSO vehicle; IU1, an USP14-specific inhibitor; Bort, bortezomib, a proteasome inhibitor. D. Representative decomposition of HMW-Ub after 2 h incubation in the presence of varying concentrations of C4. See also FIG. 36. E. Quantitation of D. The values of EC50 reported in FIG. 29B are the average and S.E.M. of at least 3 independent experiments. See also FIG. 37 and FIG. 38.
Cells overexpressing HA-ubiquitin were prepared as above. Pellets were typically stored at −80° C. until required, at which time they were thawed on ice. Cell lysis was performed in lysis buffer using a Dounce homogenizer (10 strokes, with grinding, on ice: typical yield approx. 2-5 mg protein per transfected T75 flask for HEK 293T cells; 1-3 mg protein from a T75 flask for Cos-1). Crude lysate was centrifuged at 17000 g for 10 min at 4° C., after which time the concentration of the lysate was normalized to 1 mg/mL. The lysate was aliquoted into PCR strip tubes (typical volumes 75-50 μL) and compound in DMSO was added to this to give a final concentration of DMSO of 1%. Tubes were briefly centrifuged, overlaid with Chill-out wax (50 μL) and placed in a PCR machine at 37° C. with heated lid set to 37° C. Aliquots (9 μL) were removed at the stated times and immediately quenched in (2× final concentration) reducing (dithiothreitol) loading buffer and frozen (−19° C.) till required. Western blot analysis was carried out using standard methods. Samples were resolved by SDS-PAGE, transferred to PVDF [(0.45 μm) (Towbin buffer, tank apparatus, 90 V 1 hour, then overnight at 30 V, 4° C.)] then blocked in 15% milk in TBS-T HS (100 mM Tris HCl, pH 7.6, 500 mM NaCl, 0.5% […]) for at least 2 hours at RT. Afterward, membrane was washed in TBS-T HS then probed with anti HA-HRP (1:18000) for 1.33 hours at RT. Membrane was washed 3 times in TBS-T HS (15 mins) then once in TBS (15 mins) and exposed to ECL II and visualized using blue biofilm. […] When required, membranes were stripped in 100 mM glycine pH 4, 500 mM NaCl, 1% SDS, 5 mM BME, at 55° C. for 19 mins, then analyzed.
Lysates were prepared from HEK 293T cells expressing N-terminally HA-tagged ubiquitin (HA-Ub) to facilitate the observation of ubiquitinated proteins. In the absence of a DUB inhibitor, the HMW-Ub pool decomposed with a half-life of 34 min (FIG. 30A,B). […] Similar results were obtained in lysates prepared from Cos-1 cells expressing HA-Ub.

HEK 293T cells = test: accumulation of K48- and K63-linked Ub species in HEK 293T cells; type: cell-based, human; details: 50 μM, 2 h
Procedure: FIG. 32 depicts data showing that diphenyl carbonates inhibit DUBs in HEK 293T cells. A. Viability of HEK 293T cells assessed by the propidium iodide exclusion method: diphenyl carbonate (100 μM), bortezomib (V, 20 μM) and G5 (2 μM). N≧3, mean+/−s.d. B. HEK 293T cells were treated with the stated compounds (50 μM) for 2 h and then assayed for the accumulation of K48-linked Ub species. C. As in A, but K63-linked Ub was assayed. D. HEK 293T cells were treated with C14, C15, C17, C18 (100 μM) or DMSO for 2 hours, then harvested, lysed and treated with HA-Ub-VS. After 30 min, lysates were analyzed by SDS-PAGE and probed for HA, tubulin and actin. An intervening lane was removed for clarity. E. HEK 293T cells expressing Ub-G76V-GFP were treated with diphenyl carbonates (100 μM), bortezomib (20 μM) and G5 (2 μM). […] N>3, Mean+/−s.d. See also FIG. 39. […]

[3] = tested on: USP9x, USP19, USP7/8, USP28/15; test: HA-Ub-VS activity profiling in cell lysates, USPs; type: biochemical, human
Procedure: (§1) HA-ubiquitin vinylsulfone (HA-Ub-VS) irreversibly labels DUBs by modifying the catalytic cysteine residue Inhibition of the DUB prevents HA-Ub-VS labeling and the band is. […] The interaction with UCHL1/3 is reversible.
(§2) Lysate labeling assay on untransfected cells (1.5 mg/mL) was run with the stated concentration of inhibitor (or 1% DMSO control) for between 19-60 mins. After this time HA-Ub-VS (1.5-0.7 μM) was added and incubated for 19 mins. After this time reaction mixture (9 μL) was removed and quenched in 2× (final concentration) reducing loading buffer. For recovery experiments, a lysate of 6 mg/mL was treated with saturating compound C14 (250 μM) and incubated for 40 mins. Afterward, the lysate was diluted to 0.6 mg/mL (final concentration of inhibitor 25 μM) in lysis buffer (final volume 100 μL), then HA-Ub-VS was added. Aliquots (15 μL) were removed at the stated time (5-119 mins) and immediately quenched in 2× (final concentration) reducing loading buffer. For all HA-Ub-VS experiments samples in loading buffer were heated only to 37° C. prior to loading on a gel. This assay is highly susceptible to concentration of lysate and HA-Ub-VS. Cell experiments were carried out as above with some modifications. For Cos-1 and MCF-7 cells, after trypsinization, media with compound was added to give a final concentration of compound equal to that used in the assay. Cell pellets were lysed on an ice/salt bath with a temperature of −5° C. and lysate was centrifuged for only 5 mins.
(§3) HA-Ub-VS is an irreversible inhibitor of DUBs that is widely used in activity profiling. If the DUB inhibitors react to form a thiocarbonylated enzyme as proposed (FIG. 29B), then HA-Ub-VS labeling will be blocked. Treatment of HEK 293T lysates with HA-Ub-VS produced the characteristic pattern of protein bands at 250, 150-100, 45, 38 and 36 kDa, generally ascribed to USP9x (292 kDa), USP19 (146 kDa), USP7/8 (128 and 127 kDa, respectively), USP28/15 (122 and 112 kDa, respectively), UCH-L5 (38 kDa), UCH-L3 (26 kDa) and UCH-L1 (25 kDa) as depicted in FIG. 31.
(§4) The effect of diphenylcarbonates on HA-Ub-VS labeling was assessed to investigate the selectivity of DUB inhibition. Lysates were preincubated with diphenyl carbonates (75 μM), then treated with HA-Ub-VS (FIG. 31A). […] These C17 and C22-sensitive DUBs are most likely USP9x, USP19, USP7/8 and UCHL5, based on molecular weight (FIGS. 31B and 38). The identity of USP7 was confirmed by immunoblotting (FIG. 38F). […] Similar behavior was observed on Cos-1 cell lysates (FIG. 38B).

UCH-L5, UCH-L3, UCH-L1 = test: HA-Ub-VS activity profiling in cell lysates, UCH-Ls; type: biochemical, human
Procedure: as §1, §2, §3, §4

USP9x = target: T1, USP9x (Homo sapiens, UniProt Q93008); test: HA-Ub-VS labeling in K562 cell lysates; type: biochemical; details: compound 40 minutes, then HA-Ub-VS (1.5 μM) 20 minutes
T1 construct: endogenous in cells; host or cells: K562 cell lysate
T1 sequence (Q93008 whole entry): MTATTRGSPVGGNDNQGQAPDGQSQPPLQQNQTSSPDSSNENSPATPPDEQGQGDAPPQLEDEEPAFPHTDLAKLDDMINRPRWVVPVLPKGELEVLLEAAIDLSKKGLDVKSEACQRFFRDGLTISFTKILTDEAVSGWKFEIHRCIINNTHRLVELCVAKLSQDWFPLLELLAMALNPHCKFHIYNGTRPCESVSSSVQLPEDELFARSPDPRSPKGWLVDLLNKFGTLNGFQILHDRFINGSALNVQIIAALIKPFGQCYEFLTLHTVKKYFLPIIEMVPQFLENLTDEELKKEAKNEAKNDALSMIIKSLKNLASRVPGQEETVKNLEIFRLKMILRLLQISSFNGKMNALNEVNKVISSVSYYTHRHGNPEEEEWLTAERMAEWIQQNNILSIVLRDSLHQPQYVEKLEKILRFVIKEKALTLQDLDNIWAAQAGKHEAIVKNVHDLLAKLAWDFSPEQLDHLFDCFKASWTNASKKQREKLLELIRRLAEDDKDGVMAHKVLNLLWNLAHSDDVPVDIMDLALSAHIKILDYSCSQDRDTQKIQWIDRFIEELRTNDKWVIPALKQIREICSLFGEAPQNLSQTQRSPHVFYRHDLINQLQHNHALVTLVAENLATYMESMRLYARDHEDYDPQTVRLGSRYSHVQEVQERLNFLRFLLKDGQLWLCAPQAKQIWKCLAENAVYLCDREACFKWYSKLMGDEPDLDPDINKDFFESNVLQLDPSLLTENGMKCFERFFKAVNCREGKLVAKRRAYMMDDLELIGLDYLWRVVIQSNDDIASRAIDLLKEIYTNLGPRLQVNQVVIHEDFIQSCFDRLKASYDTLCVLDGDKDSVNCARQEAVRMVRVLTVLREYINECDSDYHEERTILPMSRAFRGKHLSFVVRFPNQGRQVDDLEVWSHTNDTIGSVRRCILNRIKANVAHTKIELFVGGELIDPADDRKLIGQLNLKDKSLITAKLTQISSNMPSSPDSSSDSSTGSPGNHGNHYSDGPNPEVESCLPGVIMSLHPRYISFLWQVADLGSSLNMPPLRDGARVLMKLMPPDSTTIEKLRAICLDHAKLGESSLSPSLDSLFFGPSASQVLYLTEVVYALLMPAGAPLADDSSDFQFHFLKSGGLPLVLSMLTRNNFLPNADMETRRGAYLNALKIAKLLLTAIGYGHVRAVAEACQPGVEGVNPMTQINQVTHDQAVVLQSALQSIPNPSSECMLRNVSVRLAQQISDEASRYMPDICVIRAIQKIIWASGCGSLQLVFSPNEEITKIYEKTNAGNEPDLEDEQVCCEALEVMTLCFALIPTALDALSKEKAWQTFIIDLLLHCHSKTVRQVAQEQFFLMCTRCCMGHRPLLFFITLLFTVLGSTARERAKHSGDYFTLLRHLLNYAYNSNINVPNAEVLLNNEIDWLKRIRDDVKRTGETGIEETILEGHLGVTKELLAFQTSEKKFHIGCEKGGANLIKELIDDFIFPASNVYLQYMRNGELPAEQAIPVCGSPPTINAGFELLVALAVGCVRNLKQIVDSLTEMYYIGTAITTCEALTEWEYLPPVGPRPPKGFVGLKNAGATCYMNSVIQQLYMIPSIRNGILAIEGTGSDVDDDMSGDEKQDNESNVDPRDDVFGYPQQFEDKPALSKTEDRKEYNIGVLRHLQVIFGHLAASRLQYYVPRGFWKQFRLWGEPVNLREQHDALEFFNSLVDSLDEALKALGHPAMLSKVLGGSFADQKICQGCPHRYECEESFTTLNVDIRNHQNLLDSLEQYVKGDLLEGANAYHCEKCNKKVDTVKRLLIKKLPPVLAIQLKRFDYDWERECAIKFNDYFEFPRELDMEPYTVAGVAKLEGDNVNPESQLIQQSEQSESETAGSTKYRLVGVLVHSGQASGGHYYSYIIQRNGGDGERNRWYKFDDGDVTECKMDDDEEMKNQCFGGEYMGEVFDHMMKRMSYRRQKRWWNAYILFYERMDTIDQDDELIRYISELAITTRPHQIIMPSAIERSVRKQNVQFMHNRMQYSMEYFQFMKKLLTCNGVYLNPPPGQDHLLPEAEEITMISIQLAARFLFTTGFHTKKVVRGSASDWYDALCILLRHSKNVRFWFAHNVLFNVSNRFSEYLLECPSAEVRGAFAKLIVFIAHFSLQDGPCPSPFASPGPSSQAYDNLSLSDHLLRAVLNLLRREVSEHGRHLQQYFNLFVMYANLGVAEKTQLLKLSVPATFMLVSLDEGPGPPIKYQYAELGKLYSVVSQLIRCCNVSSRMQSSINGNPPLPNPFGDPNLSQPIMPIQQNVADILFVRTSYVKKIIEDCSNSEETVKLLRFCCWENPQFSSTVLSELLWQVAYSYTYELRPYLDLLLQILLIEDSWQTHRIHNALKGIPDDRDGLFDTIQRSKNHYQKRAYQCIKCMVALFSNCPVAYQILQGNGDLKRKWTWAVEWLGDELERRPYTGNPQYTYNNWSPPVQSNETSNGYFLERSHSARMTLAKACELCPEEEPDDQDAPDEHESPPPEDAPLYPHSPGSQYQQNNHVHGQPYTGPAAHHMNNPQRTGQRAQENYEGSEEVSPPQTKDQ
Procedure: HA-Ub-VS is commonly used to label DUBs in cell lysates. […] A. and B. K562 cell lysates were treated with compound for 40 minutes prior to activity labeling with HA-Ub-VS (1.5 μM) for 20 minutes. Samples were analyzed by SDS-PAGE and immunoblotting with anti-HA antibody. C. […] Values were derived by fitting to the in Prism.

MCF7 cells [4] = tested on: MCF7 cells
Procedure: MCF7 cells were dosed every 2 hours with the indicated concentration of C15. After 6 hours, cells were lysed by freeze thaw and then sonicated in 0.5% SDS. […] MCF7 cells were treated under the stated conditions then analyzed for cell cycle. […] G. Cells treated with C17 (25 μM), dosed every 24 hours. H. Cells treated with C17 (50 μM), dosed every 24 hours. […] These cells were left for 72 h (single dose) after which time the total number of viable cells was analyzed using Alamar Blue®. All data are n≧4 showing mean+/−s.e.m. K. MCF7 cells were plated with C17 for 24 hours after which time the total number of viable cells was measured by Alamar Blue®.
All cells were grown at 37° C. in a 5% CO2 humidified atmosphere in DMEM supplemented with 10% heat inactivated FBS, 1× glutamax, and 1× penicillin/streptomycin. […] Proliferation assays were conducted by plating cells at 5% confluence in 96 well plates together with compound or 0.1% DMSO. Cells were allowed to grow for 72 hours (a 24 h dosing regimen was used for carbonate compounds) and then Alamar Blue® was added and number of cells was measured by fluorescence on a microplate reader.

DUBs [5] = test: A-ring SAR: total ubiquitin pool in HEK293T lysates overexpressing ubiquitin-HA, western blot; type: biochemical, human; details: 1.5 h, compounds numbered as in FIG. 3
Procedure: HEK293T lysates overexpressing ubiquiting-HA were treated with the stated compound for 1.5 h and the total ubiquitin pool was analyzed by western blot (HA). […] Similar data were obtained for Cos-1 lysates.

[6] = HEK 293T lysates, 75 μM, 30 minutes preincubation

SMILES: Oc1ccc2ccccc2c1 [Compound 2-Naphthol, 2-Naphthol]
- cytotoxicity after single dose, 72 h (MCF7 cells [1]): not cytotoxic

SMILES: CC(C)(C)OC(=O)NCc1ccc(OC(=O)Oc2ccccc2)cc1 [Compound C3]
- DUB inhibitory activity, SAR in words (DUBs [2]): activity was lost

SMILES: O=C(Oc1ccccc1)Oc1ccc(CNCc2ccc(Cl)cc2)cc1 [Compound C5]
- stabilization of the HMW-Ub pool (DUBs [2]): inhibited the decomposition of the HMW-Ub pool
- DUB inhibitory activity, SAR in words (DUBs [2]): retained DUB inhibitory activity

SMILES: NCc1ccc(OC(=O)Nc2ccccc2)cc1 [Compound C7]
- stabilization of the HMW-Ub pool (DUBs [2]): Neither the analogous carbamates (C7 and C8, FIG. 30 and FIG. 36), nor the analogous esters (C9 and C10) stabilized HMW-Ub

SMILES: NCc1ccc(NC(=O)Oc2ccccc2)cc1 [Compound C8]
- stabilization of the HMW-Ub pool (DUBs [2]): Neither the analogous carbamates (C7 and C8, FIG. 30 and FIG. 36), nor the analogous esters (C9 and C10) stabilized HMW-Ub

SMILES: NCc1ccc(OC(=O)Cc2ccccc2)cc1 [Compound C9]
- stabilization of the HMW-Ub pool (DUBs [2]): nor the analogous esters (C9 and C10) stabilized HMW-Ub

SMILES: NCc1ccc(CC(=O)Oc2ccccc2)cc1 [Compound C10]
- stabilization of the HMW-Ub pool (DUBs [2]): nor the analogous esters (C9 and C10) stabilized HMW-Ub

SMILES: NCc1ccc(OC(=O)Oc2ccc(F)cc2)cc1 [Compound C11, 4-(aminomethyl)phenyl(4-fluorophenyl)carbonate]
- DUB inhibitory activity, SAR in words (DUBs [2]): had no effect on inhibitory activity

SMILES: Cc1ccc(OC(=O)Oc2ccc(CN)cc2)cc1 [Compound C12, 4-(aminomethyl)phenyl(4-methylphenyl)carbonate]
- DUB inhibitory activity, SAR in words (DUBs [2]): had no effect on inhibitory activity

SMILES: COc1ccc(OC(=O)Oc2ccc(CN)cc2)cc1 [Compound C13, 4-(aminomethyl)phenyl(4-methoxyphenyl)carbonate]
- DUB inhibitory activity, SAR in words (DUBs [2]): had no effect on inhibitory activity

SMILES: NCc1ccc(OC(=O)Oc2ccccc2Cl)cc1 [Compound C16, 4-(aminomethyl)phenyl(2-chlorophenol)carbonate]
- DUB inhibitory activity, SAR in words (DUBs [2]): improved potency relative to C4

SMILES: CC(C)(C)OC(=O)NCc1ccc(OC(=O)Oc2ccc3ccccc3c2)cc1 [Compound C19]
- DUB inhibitory activity, SAR in words (DUBs [2]): Inhibitory activity was not recovered

SMILES: CC(C)(C)CNCc1ccc(OC(=O)Oc2ccc3ccccc3c2)cc1 [Compound C20]
- accumulation of K48-linked HMW-Ub (HEK 293T cells): failed to cause the accumulation of HMW-Ub
- DUB inhibitory activity, SAR in words (DUBs [2]): inhibitory activity was retained

SMILES: CC(C)CNCc1ccc(OC(=O)Oc2ccc3ccccc3c2)cc1 [Compound C21]
- DUB inhibitory activity, SAR in words (DUBs [2]): somewhat deleterious

SMILES: N=C(N)NCc1ccc(OC(=O)Oc2ccc3ccccc3c2)cc1 [Compound C22]
- accumulation of K48-linked HMW-Ub (HEK 293T cells): failed to cause the accumulation of HMW-Ub
- DUB inhibitory activity, SAR in words (DUBs [2]): efficacious
- HA-Ub-VS labeling of USPs [3, 6]: decreased HA-Ub-VS labeling of several USPs
- HA-Ub-VS labeling, dose response ([3]; at 12 μM): significantly inhibited the labeling of several high molecular weight proteins
- HA-Ub-VS labeling of UCHL enzymes (UCH-L5, UCH-L3, UCH-L1; [6]): relatively little effect on the UCHL enzymes
- inhibition of UCH-L1/3/5, dose response (UCH-L5, UCH-L3, UCH-L1; below 50 μM): little inhibition of UCH-L1/3/5 was observed below 50 μM

SMILES: CC(C)(C)OC(=O)NCc1ccc(OC(=O)Oc2ccc(Cl)cc2)cc1 [Compound C23, N-Boc 4-(aminomethyl)phenyl(4-chlorophenyl)carbonate]
- DUB inhibitory activity, SAR in words (DUBs [2]): Inhibitory activity was not recovered

- EC50 (USP9x): > 50 µM
SMILES: CC(C)(C)OC(=O)NCc1ccc(NC(=S)Oc2ccccc2)cc1 [TCM23]

- EC50 (USP9x): 45 ± 8 µM
SMILES: CC(C)(C)OC(=O)NCc1ccc(NC(=S)Oc2ccc(Cl)cc2)cc1 [TCM28]

SMILES: NCc1ccc(O)cc1 [aminomethylphenol, 4-(aminomethyl)phenol]
- cytotoxicity after single dose, 72 h (MCF7 cells [4]): not cytotoxic

SMILES: CC(C)CNCc1ccc(OC(=O)Oc2ccc3ccccc3c2)cc1.Cl [compound 10]
- inhibition (total ubiquitin pool) (DUBs [5]): have some potency

SMILES: CC(C)(C)CNCc1ccc(OC(=O)Oc2ccc3ccccc3c2)cc1.Cl [compound 11]
- inhibition (total ubiquitin pool) (DUBs [5]): have some potency

SMILES: CC(C)(C)OC(=O)NCc1ccc(OC(=O)Oc2ccc(Cl)cc2)cc1 [compound 16, N-Boc 4-(aminomethyl)phenyl(4-chlorophenyl)carbonate]
- inhibition (total ubiquitin pool) (DUBs [5]): not an efficient inhibitor
